Measurements taken from patent US5886046A, “Dicarbonyl-containing compounds” (priority 1996, dated 1999).

How the values were obtained:
HIV-1 protease = HIV-1 protease (Human immunodeficiency virus type 1 group M subtype B, UniProt P12497); experiment: biochemical
Excerpt: (§1) The biological activity compound (4) was compared with the known enzyme inhibitor (1) N-(2(R)-Hydroxy-1(S)-indonyl)-5(S)-[tert-butyloxycarbonyl)amino]-4(S)-hydroxy-6-(4-hydroxyphenyl)-2-(R) -[(4-hydroxyphenyl)methyl]hexanamide. See, e.g., Thompson, W. J. et al., J. Med. Chem. 1992, 35, 1685) according to methods recited in the Thompson, supra. and Heimbach, J. C. et al., Biochem. Biophys. Res. Commun. 1989, 164, 955-960.

HIV-1 = experiment: CIC95 (cell culture assay of Thompson, not further described); assay type: cell-based
Excerpt: as §1

SMILES: CC(=O)C(=O)COc1ccc(C[C@H](C[C@H](O)[C@H](Cc2ccccc2)NC(=O)OC(C)(C)C)C(=O)N[C@H]2c3ccccc3C[C@H]2O)cc1 [Compound 4]
- IC50 (HIV-1 protease): 0.075 nM
- IC95 (HIV-1; Human immunodeficiency virus 1): < 6 nM
- CIC95/IC50 (HIV-1; ratio of CIC95 to IC50): < 80
